Measured values published in patent publication US9927423B2, “LRRC8 proteins and protein complexes and methods for identification of channel modulators” (MAX-DELBRUECK-CENTRUM FUER MOLEKULARE MEDIZIN, priority 2014, dated 2018).

Columns and labels:
VRAC [1] = molecular target: T1, VRAC (Homo sapiens, UniProt Q8IWT6); assay: FLIPR YFP-quenching assay: hypotonicity-induced iodide influx into HEK cells expressing YFP(H148Q/I152L); format: cell-based; set-up: Swelling-induced iodide influx into HEK cells, which display typical ICl(swell) currents; endogenous in cells; host or cells: HEK293: a clone inducibly expressing YFP(H148Q/I152L) in A1, and HEK cells in A2; details: hypotonic saline with 50 mM iodide, inhibitor included in the iodide-containing solution
T1 sequence (Q8IWT6 1-810): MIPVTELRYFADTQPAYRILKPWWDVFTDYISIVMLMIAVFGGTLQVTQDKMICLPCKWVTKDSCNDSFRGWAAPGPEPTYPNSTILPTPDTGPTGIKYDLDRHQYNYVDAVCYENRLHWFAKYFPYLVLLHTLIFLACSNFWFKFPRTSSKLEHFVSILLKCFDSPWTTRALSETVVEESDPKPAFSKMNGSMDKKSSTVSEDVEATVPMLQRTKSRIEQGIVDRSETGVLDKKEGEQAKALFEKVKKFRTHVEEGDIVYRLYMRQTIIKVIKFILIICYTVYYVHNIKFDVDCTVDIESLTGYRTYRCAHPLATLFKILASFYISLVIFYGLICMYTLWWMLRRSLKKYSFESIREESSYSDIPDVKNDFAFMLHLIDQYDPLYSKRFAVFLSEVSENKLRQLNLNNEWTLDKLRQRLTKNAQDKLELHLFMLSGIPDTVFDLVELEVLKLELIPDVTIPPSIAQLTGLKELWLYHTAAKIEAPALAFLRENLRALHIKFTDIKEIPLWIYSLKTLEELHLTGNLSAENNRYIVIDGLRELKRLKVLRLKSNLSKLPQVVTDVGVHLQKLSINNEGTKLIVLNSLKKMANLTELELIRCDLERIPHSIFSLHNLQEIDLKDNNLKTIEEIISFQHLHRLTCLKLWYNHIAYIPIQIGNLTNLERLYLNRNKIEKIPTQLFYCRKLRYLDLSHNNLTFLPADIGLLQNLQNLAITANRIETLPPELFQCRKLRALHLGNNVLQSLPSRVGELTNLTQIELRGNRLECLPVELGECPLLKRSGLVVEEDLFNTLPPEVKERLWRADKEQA
Excerpt: To identify VRAC we opted for a genome-wide RNA interference screen that could identify non-redundant VRAC components even if the channel were a heteromer. Swelling-induced iodide influx into HEK cells, which display typical ICl(swell) currents (Nilius et al., 2001, Hernandez-Carballo et al.), was used as readout (FIG. 1A). We generated a clonal HEK cell line expressing a yellow fluorescent protein variant YFP(H148Q/I152L) whose fluorescence is efficiently quenched by iodide (Galietta et al.). The assay used the FLIPR™ fluorometric imaging plate reader system which allows parallel pipetting and continuous fluorescence measurements of all wells. The solution covering the cells was exchanged to a hypotonic or isotonic (control) saline containing 50 mM iodide and YFP fluorescence was followed over time (FIG. 1B). Compatible with a background permeation pathway for I^− the fluorescence decayed slowly in I^−-containing isotonic control solution. […]
The YFP-quenching assay was performed 72 h post-transfection. After having exchanged the cell culture medium in all wells of the plate with 10 μl of isotonic solution (in mM: 145 NaCl, 5 KCl, 1 MgCl2, 2 CaCl2, 10 glucose, 10 HEPES pH 7.4, 329 mOsm) in a Tecan Freedom EVO 200 workstation, the plates were transferred into the FLIPR™ (Molecular Devices) High Throughput Cellular Screening Device and fluorescence measurements were initiated. […]

Ras-transformed cells = Ras-transformed cells compared to WT cells; cited from earlier work
VRAC [2] = molecular target: T1, VRAC; set-up: host or cells: human epidermis cancer cells; details: human epidermis cancer cells; cited from earlier work

Structure (SMILES)	inhibition of hypotonicity-induced decrease in YFP fluorescence (quenching by iodide) (VRAC [1])	other results
CCCCC1(C2CCCC2)Cc2cc(OCCCC(=O)O)c(Cl)c(Cl)c2C1=O (stereo not shown) [DCPIB]	partially inhibited	–
O=C(Nc1cc(C(F)(F)F)cc(C(F)(F)F)c1)Nc1ccc(Br)cc1-c1nnn[nH]1 [NS3728]	–	inhibition of cell migration (Ras-transformed cells): inhibit cell migration more strongly in Ras-transformed cells compared to WT cells
CC1(C)[C@@H](OC(=O)CCC(=O)O)CC[C@]2(C)[C@H]3C(=O)C=C4[C@@H]5C[C@@](C)(C(=O)O)CC[C@]5(C)CC[C@@]4(C)[C@]3(C)CC[C@@H]12 [carbenoxolone]	partially inhibited	–
N.N.[Cl][Pt][Cl] [cisplatin]	–	effect on VRAC (VRAC [2]): activate VRAC
